Measured values: patent US5236955A, “Anti-fungal agent” (Washington University, priority 1992, dated 1993)

Legend:
[1] = tested on: C. neoformans; assay: Viability of C. neoformans (viable cells relative to EtOH control culture); assay type: cell-based, Cryptococcus neoformans; details: for log reduction at 300 µM: Cryptococcus neoformans
Method: Panel A, survey of the effects of several oxatetradecanoic acids on the growth of C. neoformans. A culture of C. neoformans was grown at 30° C. in SAB media to midlog phase (A600 ~0.5). A single dose of fatty acid was then added to subcultures (final concentration=300 μM). EtOH(0.1%) was used as a negative control. Amphotericin B (AmB) was added (final concentraton=55 μM) as a positive control. Aliquots were withdrawn from the subcultures 0, 0.5, 2, 4, 7, 21, and 24 h after these additions and then absorbance at 600 nm was measured. All assays were done in duplicate or triplicate. A representative test is shown. Panel B, survey of the effects of oxatetradecanoic acids, dioxatetradecanoic acids and oxatridecanoic acids on the viability of C. neoformans. Fatty acid analog was added to the cultures as in Panel A. Aliquots were withdrawn 0.5, 2, 4, 7 or 8, and 24 h later and plated on SAB-agar at various dilutions to determine the number of viable organisms/ml culture. All assays were done in duplicate. Data from a representative test are expressed as the ratio of viable cells in treated cultures relative to a control culture that received 0.1% EtOH. A positive control culture received a single dose of amphotericin B (55 μM); Panel C, dose-dependent reduction in the viability of C. neoformans after addition of 4-oxatetradecanoic acid (O4) to cultures during log-phase growth at 30° C. in SAB. A single dose of the analog was given at T=0 h in the amount indicated and aliquots of the culture were withdrawn at various times to determine the number of viable cells. All assays were done in triplicate. A representative test is shown.
Saccharomyces cerevisiae strain YM2061 (MATa ura3-52 his3Δ200 ade2-101 lys2-801 met LEU2::pRY181 can1; Flick and Johnston, Mol. Cell. Biol. 10, 4757-4769 (1990), Candida albicans strain B311 (obtained from the American Type Tissue Culture, Rockville, Md.), or Cryptococcus neoformans strain L210425 (a clinical isolate that is part of the permanent culture collection of the Mycology Laboratory, Barnes Hospital, St. Louis, Mo.) were grown overnight at 30 C. The S. cerevisiae strain was incubated in YPD medium (1% bacto-yeast extract, Gibco, Long Island, N.Y.), 2% bacto-peptone (Gibco), 2% dextrose). The C. albicans and C. neoformans strains were grown in Sabouraud's media (SAB; 2% (w/v) dextrose, 1% bacto-peptone). The following morning the cultures were diluted into fresh medium to the desired density at 600 nm (early log phase), and subsequently incubated in a rotary shaker at 30° C. until an A600 =0.5 (mid log phase) was achieved. The culture was then divided into 10 ml aliquots. A single 10 μl aliquot of a stock solution of fatty acid analog (prepared in various concentrations using absolute ethanol) was added to the culture so that the final concentration of the compound was 100-500 μM (T=0). Ten microliters of ethanol alone was added to one 10 ml culture which served as the negative control. Amphotericin B (AmB; in the form of Fungizone, Squibb) was added (final concentration=55 μM) to another culture which served as the positive control. At T=0 and 0.5-24 h after addition of fatty acid analog to the subcultures, an aliquot was removed for determining the density of the subculture at 600 nm. Cell viability was determined at each of these time points by (i) serially diluting the aliquot in 0.15M NaCl and counting cell number in a hemocytometer and (ii) plating 2-3 of the dilutions in triplicate onto plates of SAB/agar (C. albicans and C. neoformans) or YPD/agar (S. cerevisiae). These plates were subsequently incubated at 30° C. for 24-48 hr to allow for the growth of colonies. The data were expressed as the ratio of viable cells/ml in the fatty acid analog treated subculture to the number of viable cells/ml in the negative (ethanol) control culture.

[2] = tested on: C. neoformans; assay: Metabolic stability of O4 and resistance in C. neoformans cultures; assay type: cell-based, Cryptococcus neoformans
Method: Cultreus of C. neoformans were exposed to a single dose of 300 μM O4 or 0.1% EtOH during mid-log phase growth (O4A, EtOH1) as in FIG. 1. Two hours later, an aliquot was removed from the culture and subjected to centrifugation at 1500×g for 10 min. The "used" O4-containing media was added to EtOH-treated cells (O4B). "Fresh" O4 was added to cells (final concentration=300 μM) that had already been exposed to O4 for 2 h (O4C). at 24 H, O4-treated cells were again pelleted and resuspended in "fresh" O4-containing media (final concentration=300 μM (O4E)). The "used" O4 media was added to a fresh culture of untreated cells (O4D) and their growth was compared to an identical population of cells treated with EtOH alone (EtOH2).
A series of tests were conducted to assess the metabolic stability of the compound (FIG. 2). Media was harvested from cells treated with a single dose of 300 μM O4 for 2 hr or for 24 hr and added to a exponentially growing culture of C. neoformans that had never been exposed to fatty acid analog. 100 fold and 10 fold decreases (respectively) in viable cell number were observed over the ensuing 2 hr (O4B and O4D in FIG. 2). […] Exponentially growing cultures were also exposed to a single 300 μM dose of O4, a single dose of 0.1% EtOH, or to no additions. Aliquots of each of the cultures were removed 4 and 24 hr later and plated on Sabouraud/agar. […]

[3] = tested on: HIV-1; details: acutely infected human T lymphocyte cell line; cited from earlier work

Compound: CCCCCCCCCCOCCC(=O)O [O4, 4-oxatetradecanoic acid]
- time needed to produce the decrease in viable cells ([1]; 300 μM single dose): ≤ 1 h
- fungicidal / fungistatic effect on C. neoformans ([1]; 300 μM single dose, screening assay): fungicidal
- log reduction at 300 µM ([1]; 300 μM single dose, relative to 0.1% EtOH control, read-out: decrease in viable cells (converted)): 4
- log reduction at 300 µM ([1]; 300 μM, between 1 and 7 h after treatment, read-out: further reductions in viable cell number): < 1
- cell number after single dose ([1]; between 8 and 24 hr after single dose): gradual increase in cell number
- dose dependence of fungicidal activity ([1]; four doses, 100-300 μM): progressive reduction of viable cell number
- log reduction at 300 µM ([2]; Cryptococcus neoformans, cells already exposed for 2 hr or 24 hr (O4C, O4E), read-out: further reduction in viable cell number on fresh 300 μM media (converted)): 0.699
- resistance or tolerance of cells after exposure ([2]; colonies from cultures exposed 4 and 24 hr, re-exposed to 300 μM): do not become resistant or tolerant
- HIV-1 replication [3]: inhibits HIV-1 replication
